Among the data in patent US12129237B2, “Substituted diaminocarboxamide and diaminocarbonitrile pyrimidines, compositions thereof, and methods of treatment therewith” (SIGNAL PHARMACEUTICALS, LLC, priority 2011, dated 2024) are IC50 values, retold here.

SMILES strings stand for the structures. Some results are limits rather than exact numbers.

In one assay the target is T1, JNK1 (Homo sapiens, UniProt P45983).
T1 construct: purchased Carna Biosciences
T1 sequence (P45983 whole entry): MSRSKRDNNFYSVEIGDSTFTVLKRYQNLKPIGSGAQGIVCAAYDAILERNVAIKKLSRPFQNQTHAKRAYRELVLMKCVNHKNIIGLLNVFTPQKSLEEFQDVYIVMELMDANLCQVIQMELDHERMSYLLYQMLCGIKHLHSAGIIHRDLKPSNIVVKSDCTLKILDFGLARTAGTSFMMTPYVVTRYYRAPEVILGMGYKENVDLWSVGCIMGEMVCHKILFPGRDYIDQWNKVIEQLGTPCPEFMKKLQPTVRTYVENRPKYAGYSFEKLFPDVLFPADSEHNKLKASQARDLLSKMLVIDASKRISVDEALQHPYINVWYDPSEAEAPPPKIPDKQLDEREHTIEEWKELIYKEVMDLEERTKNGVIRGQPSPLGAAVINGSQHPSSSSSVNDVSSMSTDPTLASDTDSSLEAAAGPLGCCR
Kind of assay: JNK1 biochemical assays (one or more of: time resolved fluorescence, Z'-LYTE Cascade, radioactive). To be noted: Table 2; JNK1 IC50 activity level; read-out: Act. Level.
In the case of `CCOc1ccc(Nc2ncc(C(N)=O)c(N[C@H]3CCC[C@@H]3O)n2)cc1` [Example B-1, 2-(4-ethoxyphenylamino)-4-((1S,2S)-2-hydroxycyclopentylamino)pyrimidine-5-carboxamide], the IC50 was less than 200 nM.
As to `NC(=O)c1cnc(NC2CCOCC2)nc1Nc1ccc2ncccc2c1` [Example B-2, 4-(quinolin-6-ylamino)-2-(tetrahydro-2H-pyran-4-ylamino)pyrimidine-5-carboxamide], the IC50 was less than 200 nM.
On the same count and under the same terms, the result for `NC(=O)c1cnc(NC2CCOCC2)nc1Nc1ccc2cn[nH]c2c1` [Example B-3, 4-(1H-indazol-6-ylamino)-2-(tetrahydro-2H-pyran-4-ylamino)pyrimidine-5-carboxamide] reads less than 200 nM; that for `CS(=O)(=O)N[C@H]1CC[C@H](Nc2ncc(C(N)=O)c(Nc3ccccc3)n2)CC1` [Example B-5, 2-((1r,4r)-4-(methylsulfonamido)cyclohexylamino)-4-(phenylamino)pyrimidine-5-carboxamide], less than 200 nM.
With `CC(=O)N[C@H]1CC[C@H](Nc2ncc(C(N)=O)c(Nc3ccccc3)n2)CC1` [Example B-6, 2-((1r,4r)-4-acetamidocyclohexylamino)-4-(phenylamino)pyrimidine-5-carboxamide], the IC50 was less than 200 nM.
For `NC(=O)c1cnc(N[C@H]2CC[C@H](N)CC2)nc1Nc1ccccc1` [Example B-7, 2-((1r,4r)-4-aminocyclohexylamino)-4-(phenylamino)pyrimidine-5-carboxamide], the IC50 is less than 200 nM.
Still for that read-out and setting: the result for `CNC(=O)[C@H]1CC[C@H](Nc2ncc(C(N)=O)c(Nc3ccccc3)n2)CC1` [Example B-8, 2-((1r,4r)-4-(methylcarbamoyl)cyclohexylamino)-4-(phenylamino)pyrimidine-5-carboxamide] reads less than 200 nM; that for `NC(=O)c1cnc(NC2CCNCC2)nc1Nc1ccccc1` [Example B-9, 4-(phenylamino)-2-(piperidin-4-ylamino)pyrimidine-5-carboxamide], 1000 to 10000 nM; that for `CC(=O)N1CCC(Nc2ncc(C(N)=O)c(Nc3ccccc3)n2)CC1` [Example B-10, 2-(1-acetylpiperidin-4-ylamino)-4-(phenylamino)pyrimidine-5-carboxamide], 1000 to 10000 nM.
On the same count and under the same terms, the result for `NC(=O)c1cnc(NC2CCOCC2)nc1Nc1ccccc1` [Example B-11, 4-(phenylamino)-2-(tetrahydro-2H-pyran-4-ylamino)pyrimidine-5-carboxamide] reads less than 200 nM; that for `CC(C)(C)Nc1ncc(C(N)=O)c(Nc2ccccc2)n1` [Example B-12, 2-(tert-butylamino)-4-(phenylamino)pyrimidine-5-carboxamide], less than 200 nM; that for `CCN(CC)c1ccc(Nc2ncc(C(N)=O)c(Nc3ccccc3)n2)cc1` [Example B-13, 2-(4-(diethylamino)phenylamino)-4-(phenylamino)pyrimidine-5-carboxamide], less than 200 nM.
For the compound `COc1ccccc1Nc1ncc(C(N)=O)c(Nc2ccccc2)n1` [Example B-15, 2-(2-methoxyphenylamino)-4-(phenylamino)pyrimidine-5-carboxamide], the IC50 is less than 200 nM.
On the same count and under the same terms, the result for `COc1ccc(Nc2ncc(C(N)=O)c(Nc3ccccc3)n2)cn1` [Example B-16, 2-(6-methoxypyridin-3-ylamino)-4-(phenylamino)pyrimidine-5-carboxamide] reads less than 200 nM.
On the same count and under the same terms, the result for `COc1ccc(Nc2ncc(C(N)=O)c(Nc3ccccc3)n2)c(C)c1` [Example B-18, 2-(4-methoxy-2-methylphenylamino)-4-(phenylamino)pyrimidine-5-carboxamide] reads less than 200 nM; that for `COc1cc(Nc2ncc(C(N)=O)c(Nc3ccccc3)n2)cc(OC)c1OC` [Example B-19, 4-(phenylamino)-2-(3,4,5-trimethoxyphenylamino)pyrimidine-5-carboxamide], less than 200 nM.
On the same count and under the same terms, the result for `COc1ccc(Nc2ncc(C(N)=O)c(Nc3ccccc3)n2)c(OC)c1` [Example B-20, 2-(2,4-dimethoxyphenylamino)-4-(phenylamino)pyrimidine-5-carboxamide] reads less than 200 nM; that for `Cc1ccnc(Nc2ncc(C(N)=O)c(Nc3ccccc3)n2)n1` [Example B-21, 2-(4-methylpyrimidin-2-ylamino)-4-(phenylamino)pyrimidine-5-carboxamide], 1000 to 10000 nM.
For `NC(=O)c1cnc(Nc2ccccc2Oc2ccccc2)nc1Nc1ccccc1` [Example B-22, 2-(2-phenoxyphenylamino)-4-(phenylamino)pyrimidine-5-carboxamide], the IC50 is less than 200 nM.
In the case of `COc1cc(Nc2ncc(C(N)=O)c(Nc3ccccc3)n2)cc(OC)c1` [Example B-23, 2-(3,5-dimethoxyphenylamino)-4-(phenylamino)pyrimidine-5-carboxamide], the IC50 was less than 200 nM.
As to `NC(=O)c1cnc(Nc2cccc(F)c2)nc1Nc1ccccc1` [Example B-24, 2-(3-fluorophenylamino)-4-(phenylamino)pyrimidine-5-carboxamide], the IC50 was less than 200 nM.
On the same count and under the same terms, the value for `COc1cccc(Nc2ncc(C(N)=O)c(Nc3ccccc3)n2)c1` [Example B-25, 2-(3-methoxyphenylamino)-4-(phenylamino)pyrimidine-5-carboxamide] was less than 200 nM; that for `CCOc1cccc(Nc2ncc(C(N)=O)c(Nc3ccccc3)n2)c1` [Example B-26, 2-(3-ethoxyphenylamino)-4-(phenylamino)pyrimidine-5-carboxamide] was less than 200 nM.
On the same count and under the same terms, the result for `COc1ccc(Nc2ncc(C(N)=O)c(Nc3ccccc3)n2)cc1F` [Example B-27, 2-(3-fluoro-4-methoxyphenylamino)-4-(phenylamino)pyrimidine-5-carboxamide] reads less than 200 nM; that for `Cc1cccc(Nc2ncc(C(N)=O)c(Nc3ccccc3)n2)c1` [Example B-28, 4-(phenylamino)-2-(m-tolylamino)pyrimidine-5-carboxamide], less than 200 nM.
Same read-out and setting: the value for `COc1ccc(-c2ccccc2)cc1Nc1ncc(C(N)=O)c(Nc2ccccc2)n1` [Example B-29, 2-(4-methoxybiphenyl-3-ylamino)-4-(phenylamino)pyrimidine-5-carboxamide] was 1000 to 10000 nM.

Staying with this assay, now noted: tested in one or more of the JNK1 biochemical assays; read-out: Act. Level (JNK1 biochemical assay IC50 activity level).
For `C[C@]1(O)CCC[C@@H](Nc2nc(NC3CCC(F)(F)CC3)ncc2C(N)=O)C1` [Example A-187, 2-(4,4-difluorocyclohexylamino)-4-((1R,3S)-3-hydroxy-3-methylcyclohexylamino)pyrimidine-5-carboxamide], the IC50 is less than 200 nM.
Still for that read-out and setting: the result for `NC(=O)c1cnc(N[C@H]2CC[C@H](OCC(F)(F)F)CC2)nc1N[C@@H]1CCCOC1` [Example A-188, 4-((R)-tetrahydro-2H-pyran-3-ylamino)-2-((1r,4R)-4-(2,2,2-trifluoroethoxy)cyclohexylamino)pyrimidine-5-carboxamide] reads less than 200 nM.
On the same count and under the same terms, the result for `CC[C@@H](C)Nc1nc(N[C@H]2CC[C@H](O)CC2)ncc1C(N)=O` [Example A-189, 4-(sec-butylamino)-2-((1r,4R)-4-hydroxycyclohexylamino)pyrimidine-5-carboxamide] reads less than 200 nM.
Still for that read-out and setting: the value for `CO[C@H]1CC[C@H](Nc2ncc(C(N)=O)c(NC3CCCC3)n2)CC1` [Example A-190, 4-(cyclopentylamino)-2-((1r,4r)-4-methoxycyclohexylamino)pyrimidine-5-carboxamide] was less than 200 nM; that for `CC(C)Nc1nc(N[C@H]2CC[C@H](OC(F)F)CC2)ncc1C(N)=O` [Example A-191, 2-((1r,4r)-4-(difluoromethoxy)cyclohexylamino)-4-(isopropylamino)pyrimidine-5-carboxamide] was less than 200 nM.
As to `NC(=O)c1cnc(NC2CCC(F)(F)CC2)nc1N[C@@H]1CCCC[C@H](O)C1` [Example A-192, 2-(4,4-difluorocyclohexylamino)-4-((1R,3S)-3-hydroxycycloheptylamino)pyrimidine-5-carboxamide], the IC50 is less than 200 nM.
On the same count and under the same terms, the value for `NC(=O)c1cnc(N[C@H]2CC[C@H](O)CC2)nc1N[C@@H]1CCCOC1` [Example A-193, 2-((1r,4R)-4-hydroxycyclohexylamino)-4-((R)-tetrahydro-2H-pyran-3-ylamino)pyrimidine-5-carboxamide] was less than 200 nM.
Still for that read-out and setting: the result for `CN(C)C(=O)[C@H]1CC[C@H](Nc2ncc(C(N)=O)c(N[C@@H]3CCCOC3)n2)CC1` [Example A-194, 2-((1r,4R)-4-(dimethylcarbamoyl)cyclohexylamino)-4-((R)-tetrahydro-2H-pyran-3-ylamino)pyrimidine-5-carboxamide] reads less than 200 nM.
The same measure, in the same setting: the value for `CC[C@H](C)Nc1nc(N[C@H]2CC[C@H](O)CC2)ncc1C(N)=O` [Example A-195, 4-(sec-butylamino)-2-((1r,4S)-4-hydroxycyclohexylamino)pyrimidine-5-carboxamide] was less than 200 nM; that for `CCO[C@H]1CC[C@H](Nc2ncc(C(N)=O)c(NC3CCC3)n2)CC1` [Example A-197, 4-(cyclobutylamino)-2-((1r,4r)-4-ethoxycyclohexylamino)pyrimidine-5-carboxamide] was less than 200 nM; that for `C[C@@H]1CC[C@@H](Nc2nc(NC3CCC(F)(F)CC3)ncc2C(N)=O)C[C@H]1O` [Example A-198, 2-(4,4-difluorocyclohexylamino)-4-((1R,3R,4R)-3-hydroxy-4-methylcyclohexylamino)pyrimidine-5-carboxamide] was less than 200 nM.
For `CNC(=O)[C@H]1CC[C@H](Nc2ncc(C(N)=O)c(NC(C)C)n2)CC1` [Example A-199, 4-(isopropylamino)-2-((1r,4r)-4-(methylcarbamoyl)cyclohexylamino)pyrimidine-5-carboxamide], the IC50 was less than 200 nM.
Turning to `CO[C@H]1CCC[C@H](Nc2ncc(C(N)=O)c(N[C@@H]3CCC[C@H](O)C3)n2)CC1` [Example A-200, 4-((1R,3S)-3-hydroxycyclohexylamino)-2-((1S,4S)-4-methoxycycloheptylamino)pyrimidine-5-carboxamide], the IC50 is less than 200 nM.
The same measure, in the same setting: the value for `CO[C@@H]1CCC[C@@H](Nc2ncc(C(N)=O)c(N[C@@H]3CCC[C@H](O)C3)n2)CC1` [Example A-201, 4-((1R,3S)-3-hydroxycyclohexylamino)-2-((1R,4R)-4-methoxycycloheptylamino)pyrimidine-5-carboxamide] was less than 200 nM.
